Source: patent US8614324B2, “Filamin A binding anti-inflammatory and analgesic” (priority 2008, dated 2013)

Target: T1, mu opiate receptor (MOR) (Rattus norvegicus, UniProt P33535)
T1 construct: from tissue; host or cells: striatal membrane preparation (rat striatum)
Test: MOR agonist activity, [35S]GTPγS binding assay using striatal membranes
Assay type: biochemical
Set-up: MOR agonist activity, [35S]GTPγS binding to Gαo: reference not given here
Protocol: To assess the mu opiate receptor (MOR) agonist activity of positive compounds from the FLNA screening, compounds were tested in a [^35S]GTPγS binding assay using striatal membranes.
Striatal tissue was homogenized in 10 volumes of ice cold 25 mM HEPES buffer, pH 7.4, which contained 1 mM EGTA, 100 mM sucrose, 50 μg/ml leupeptin, 0.04 mM PMSF, 2 μg/ml soybean trypsin inhibitor and 0.2% 2-mercaptoethanol. The homogenates were centrifuged at 800×g for 5 minutes and the supernatants were centrifuged at 49,000×g for 20 minutes. The resulting pellets were suspended in 10 volume of reaction buffer, which contained 25 mM HEPES, pH 7.5, 100 mM NaCl, 50 μg/ml leupeptin, 2 μg/ml soybean trypsin inhibitor, 0.04 mM PMSF and 0.02% […].
The resultant striatal membrane preparation (200 μg) was admixed and maintained (incubated) at 30° C. for 5 minutes in reaction buffer as above that additionally contained 1 mM MgCl2 and 0.5 nM [^35S]GTPγS (0.1 μCi/assay, PerkinElmer Life and Analytical Sciences) in a total volume of 250 μl and continued for 5 minutes in the absence or presence of 0.1-10 μM of an assayed compound of interest. The reaction was terminated by dilution with 750 μl of ice-cold reaction buffer that contained 20 mM MgCl2 and 1 mM EGTA and immediate centrifugation at 16,000×g for 5 minutes.
The resulting pellet was solubilized by sonicating for 10 seconds in 0.5 ml of immunoprecipitation buffer containing 0.5% digitonin, 0.2% sodium cholate and 0.5% NP-40. Normal rabbit serum (1 μl) was added to 1 ml of lysate and incubated at 25° C. for 30 minutes. Nonspecific immune complexes were removed by incubation with 25 μl of protein A/G-conjugated agarose beads at 25° C. for 30 minutes followed by centrifugation at 5,000×g at 4° C. for 5 minutes. The supernatant was divided and separately incubated at 25° C. for 30 minutes with antibodies raised against Gαo proteins (1:1,000 dilutions).
The immunocomplexes so formed were collected by incubation at 25° C. for 30 minutes with 40 μl of agarose-conjugated protein A/G beads and centrifugation at 5,000×g at 4° C. for 5 minutes. The pellet was washed and suspended in buffer containing 50 mM Tris-HCl, pH 8.0, and 1% NP-40. The radioactivity in the suspension was determined by liquid scintillation spectrometry. […] DAMGO (H-Tyr-D-Ala-Gly-N-MePhe-Gly-OH; 1 or 10 μM) was used as a positive control.

[1] = 0.1 μM compound, striatal membranes
[2] = 1 μM compound + BFNA (1 μM β-funaltrexamine)
[3] = 1 μM compound, striatal membranes

T1 sequence (P33535 whole entry): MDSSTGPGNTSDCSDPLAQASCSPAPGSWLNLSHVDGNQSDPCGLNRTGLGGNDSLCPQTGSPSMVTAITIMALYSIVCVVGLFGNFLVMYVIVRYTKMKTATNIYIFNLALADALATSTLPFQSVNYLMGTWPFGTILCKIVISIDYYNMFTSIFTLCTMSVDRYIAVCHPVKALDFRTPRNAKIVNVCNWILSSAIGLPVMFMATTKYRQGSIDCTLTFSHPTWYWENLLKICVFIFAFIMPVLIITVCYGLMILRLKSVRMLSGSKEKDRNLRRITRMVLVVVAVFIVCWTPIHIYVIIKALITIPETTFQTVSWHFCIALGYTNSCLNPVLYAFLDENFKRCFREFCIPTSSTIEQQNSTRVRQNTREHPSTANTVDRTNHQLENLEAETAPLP

Row | Structure (SMILES) | MOR agonist activity, [35S]GTPγS binding to Gαo [1] [%] | MOR agonist activity, [35S]GTPγS binding to Gαo [2] [%] | MOR agonist activity, [35S]GTPγS binding to Gαo [3] [%]
1 | CC(=O)c1ccc(S(=O)(=O)N2C(Cc3c[nH]cn3)C(=O)NC23CCNCC3)cc1 (stereo not drawn) [Compound C0119M] | 105.7 | 35.1 | 167.8
2 | O=C1CN(Cc2ccccc2)C2(CCN(C3CCCCC3)CC2)N1 [C0137M(P7)] | 180.8 | 55.8 | 193.8
3 | CC(=O)c1ccc(S(=O)(=O)N2CCC3(CC2)OCCN3S(C)(=O)=O)cc1 [Compound C0056] | 98.6 | 86.3 | 193.4
4 | COc1ccc(S(=O)(=O)N2CCC3(CC2)NCCO3)cc1 [Compound C0026] | 207.2 | 21.2 | 288.4
5 | O=C1CN(C2CCc3ccccc3C2)C2(CCN(S(=O)(=O)c3ccccc3)CC2)N1 (stereo not drawn) [C0136M(P5)] | 176.8 | 74.5 | 237.3
6 | O=C1CNC2(CCNCC2)N1Cc1ccccc1 [Compound C0114M] | 114.0 | 35.9 | 144.3
7 | CC(=O)c1ccc(S(=O)(=O)N2CC(=O)NC23CCNCC3)cc1 [Compound C0086M] | 206.8 | 152.3 | 265.3
8 | CC(=O)c1ccc(S(=O)(=O)N2CCC3(CC2)NCCS3)cc1 [Compound C0060] | 166.5 | 143.9 | 218.9
9 | CC(=O)c1ccc(S(=O)(=O)N2CCOC23CCNCC3)cc1 [Compound C0046] | 286.2 | 156.8 | 492.9
10 | CN1CCC2(CC1)NCC(=O)N2Cc1ccccc1 [Compound C0105M] | 198.1 | 73.1 | 220.3
11 | CC(=O)c1ccc(S(=O)(=O)N2CC(CN(C)C)OC23CCN(C)CC3)cc1 (stereo not drawn) [Compound C0108M] | 205.6 | 76.9 | 258.5
12 | CCOC(=O)CN1CCC2(CC1)OCCN2S(=O)(=O)c1ccc(C(C)=O)cc1 [Compound C0099M] | 157.2 | 114.7 | 195.7
13 | COc1ccc(S(=O)(=O)N2CCC3(CC2)NCCC(=O)N3)cc1 [Compound C0142M] | 143.7 | 98.7 | 192.5
14 | CC(=O)c1ccc(S(=O)(=O)N2CC(CN(C)C)OC23CCN(CC2CC2)CC3)cc1 (stereo not drawn) [Compound C0128M] | 197.8 | 63.9 | 286.0
15 | CC(=O)N1CCSC12CCN(S(=O)(=O)c1ccc([N+](=O)[O-])cc1)CC2 [Compound C0050] | 110.3 | 59.0 | 127.6
16 | COc1ccc(S(=O)(=O)N2CCOC23CCN(C)CC3)cc1 [Compound C0088M] | 276.3 | 177.1 | 355.3

Row | Structure (SMILES) | MOR agonist activity, [35S]GTPγS binding to Gαo [1] [%] | MOR agonist activity, [35S]GTPγS binding to Gαo [2] [%] | MOR agonist activity, [35S]GTPγS binding to Gαo [3] [%]
17 | COc1ccc(S(=O)(=O)N2CCOC23CCN(C(C)C)CC3)cc1 [Compound C0133M] | 139.4 | 72.4 | 214.8
18 | CS(=O)(=O)c1ccc(S(=O)(=O)N2CCOC23CCNCC3)cc1 [Compound C0116M] | 258.4 | 152.0 | 302.8
19 | C=CCN1CCC2(CC1)OCCN2S(=O)(=O)c1ccc(C(C)=O)cc1 [Compound C0096M] | 186.4 | 127.1 | 328.9
20 | CCN1CCC2(CC1)OCCN2S(=O)(=O)c1ccc(C(C)=O)cc1 [Compound C0094M] | 172.5 | 115.3 | 263.5
21 | CC(=O)c1ccc(S(=O)(=O)N2CC(CN(C)C)OC23CCNCC3)cc1 (stereo not drawn) [Compound C0118M] | 166.2 | 79.2 | 261.5
22 | CCc1ccc(S(=O)(=O)N2CCOC23CCN(CC2CC2)CC3)cc1 [Compound C0135M] | 161.3 | 113.3 | 310.1
23 | CS(=O)(=O)c1ccc(S(=O)(=O)N2CCOC23CCN(CC2CC2)CC3)cc1 [Compound C0126M] | 181.8 | 108.5 | 265.3
24 | CC(=O)c1ccc(S(=O)(=O)N2CCOC23CCN(C)CC3)cc1 [Compound C0093M] | 140.0 | 44.0 | 211.8
25 | Cc1ccc(S(=O)(=O)N2CCOC23CCN(CC2CC2)CC3)cc1 [Compound C0134M] | 158.5 | 46.6 | 207.3
26 | CC(=O)c1ccc(S(=O)(=O)N2CCOC23CCN(CC(=O)O)CC3)cc1 [Compound C0100M] | 173.6 | 195.6 | 245.9
27 | CN1CCC2(CC1)OCCN2S(=O)(=O)c1ccc(S(C)(=O)=O)cc1 [Compound C0106M] | 171.8 | 117.2 | 240.7
28 | CCN1CCC2(CC1)OCCN2S(=O)(=O)c1ccc(OC)cc1 [Compound C0089M] | 234.5 | 81.9 | 295.3
29 | CCCCN1CCC2(CC1)OCCN2S(=O)(=O)c1ccc(OC)cc1 [Compound C0102M] | 131.8 | 150.4 | 272.0
30 | CC(=O)c1ccc(S(=O)(=O)N2CCC3(CC2)NC(=O)CO3)cc1 [Compound C0087M] | 262.8 | 142.5 | 329.6
31 | O=C1CN(Cc2ccccc2)C2(CCNCC2)N1 [Compound C0115M] | 177.2 | 118.4 | 226.8
